Legend:
[1] = Molar enthalpy of transition or fusion; settings: Crystal; DSC

O=C(O)c1c(O)cccc1O [2,6-dihydroxybenzoic acid]
Settings | Molar enthalpy of transition or fusion [kcal/mol]
[1] | 5.98

Settings | vapor or sublimation pressure [kPa]
346 K, Crystal, Torsion effusion method | 9.9e-05
347 K, Crystal, Torsion effusion method | 0.000113
351.5 K, Crystal, Torsion effusion method | 0.00017
353.3 K, Crystal, Torsion effusion method | 0.000216
354 K, Crystal, Torsion effusion method | 0.000223
355 K, Crystal, Torsion effusion method | 0.000248
357 K, Crystal, Torsion effusion method | 0.000307
358 K, Crystal, Torsion effusion method | 0.000341
360.5 K, Crystal, Torsion effusion method | 0.000443
361 K, Crystal, Torsion effusion method | 0.000467
361.5 K, Crystal, Torsion effusion method | 0.000492
363 K, Crystal, Torsion effusion method | 0.000574
363.5 K, Crystal, Torsion effusion method | 0.000604
365 K, Crystal, Torsion effusion method | 0.000704
366 K, Crystal, Torsion effusion method | 0.000779
367 K, Crystal, Torsion effusion method | 0.000851
367.5 K, Crystal, Torsion effusion method | 0.0009
369 K, Crystal, Torsion effusion method | 0.001031
454.2 K, Liquid, Non-isothermal TG | 0.643
454.7 K, Liquid, Non-isothermal TG | 0.681
455.7 K, Liquid, Non-isothermal TG | 0.722
456.7 K, Liquid, Non-isothermal TG | 0.754
457.7 K, Liquid, Non-isothermal TG | 0.804
458.7 K, Liquid, Isothermal TG | 0.809
458.7 K, Liquid, Non-isothermal TG | 0.853
459.1 K, Liquid, Isothermal TG | 0.829
459.2 K, Liquid, Isothermal TG | 0.848
459.7 K, Liquid, Non-isothermal TG | 0.904
459.8 K, Liquid, Isothermal TG | 0.868
460.2 K, Liquid, Isothermal TG | 0.887
460.6 K, Liquid, Isothermal TG | 0.907
460.7 K, Liquid, Isothermal TG | 0.928
460.8 K, Liquid, Non-isothermal TG | 0.954
461 K, Liquid, Isothermal TG | 0.928
461.5 K, Liquid, Isothermal TG | 0.948
461.8 K, Liquid, Non-isothermal TG | 1.006
461.9 K, Liquid, Isothermal TG | 0.968
462 K, Liquid, Isothermal TG | 0.979
462.7 K, Liquid, Isothermal TG | 1
462.7 K, Liquid, Non-isothermal TG | 1.056
463.1 K, Liquid, Isothermal TG | 1.027
463.5 K, Liquid, Isothermal TG | 1.048
463.6 K, Liquid, Isothermal TG | 1.055
463.8 K, Liquid, Non-isothermal TG | 1.077
464.3 K, Liquid, Isothermal TG | 1.087
464.7 K, Liquid, Isothermal TG | 1.108
464.8 K, Liquid, Non-isothermal TG | 1.121
465.1 K, Liquid, Isothermal TG | 1.113
465.2 K, Liquid, Isothermal TG | 1.14
465.8 K, Liquid, Non-isothermal TG | 1.175
465.9 K, Liquid, Isothermal TG | 1.167
466.3 K, Liquid, Isothermal TG | 1.187
466.7 K, Liquid, Isothermal TG | 1.208
466.8 K, Liquid, Isothermal TG | 1.227
466.8 K, Liquid, Non-isothermal TG | 1.22
467.5 K, Liquid, Isothermal TG | 1.248
467.8 K, Liquid, Non-isothermal TG | 1.313
467.9 K, Liquid, Isothermal TG | 1.267
468.3 K, Liquid, Isothermal TG | 1.288
468.4 K, Liquid, Isothermal TG | 1.307
468.8 K, Liquid, Non-isothermal TG | 1.364
469.1 K, Liquid, Isothermal TG | 1.328
469.5 K, Liquid, Isothermal TG | 1.348
469.8 K, Liquid, Non-isothermal TG | 1.412
470 K, Liquid, Isothermal TG | 1.381
470.1 K, Liquid, Isothermal TG | 1.389
470.8 K, Liquid, Isothermal TG | 1.434
470.8 K, Liquid, Non-isothermal TG | 1.464
471.2 K, Liquid, Isothermal TG | 1.442
471.6 K, Liquid, Isothermal TG | 1.472
471.7 K, Liquid, Isothermal TG | 1.509
471.7 K, Liquid, Non-isothermal TG | 1.51
472.5 K, Liquid, Isothermal TG | 1.546
472.7 K, Liquid, Non-isothermal TG | 1.557
473.7 K, Liquid, Non-isothermal TG | 1.644
474.8 K, Liquid, Non-isothermal TG | 1.761
475.7 K, Liquid, Non-isothermal TG | 1.829
476.7 K, Liquid, Non-isothermal TG | 1.847

Settings | Normal melting temperature [°C]
Crystal, DTA | 170.6
